The text below walks through data of patent US20100087539A1, “N'--3-AMINO-3-PHENYLPROPEONIC ACID AND THE PHARMACEUTICALLY ACCEPTABLE DERIVATIVES THEREOF, A METHOD FOR THE PRODUCTION AND THE USE THEREOF IN THE FORM OF A MEDICINAL AGENT” (priority 2006, published 2010).

Read-outs that look alike come from different tables or passages of the source.

Data set [1] has as its system B-cellular immunity. Nature of the data set: B-cellular immunity upon immunization with BSA, specific antibody titer by enzyme-linked immunoassay. The following applies: for Antibody titer (inverse value): mice, s.c. BSA with compound, sera at day 10 post second immunization; for Immunogenicity coefficient: relative to BSA without the preparation. The data set is classed as in vivo, mice. The procedure: 400 μg of BSA was injected subcutaneously to the animals in 0.5 ml of 0.9% NaCl. Three groups of control animals were involved. […] Additionally, glycyrrhizinic acid (GA) was used as a known immunomodulator. Preimmune mice served as a control. At day 21 the second immunization was performed similarly (the injection solution contained 100 μg of BSA and 200 μg of the test compound). At day 10 post the second immunization blood sera were collected. The titer of antibodies was determined by an enzyme-linked immunoassay technique according to the procedure as described [Enzyme-linked immunoassay technique//Edited by T. T. Igo, G. Lenkhoffaju—Moscow: Mir, 1998].

In data set [2] the test system is HIV-1/EVK. Nature of the data set: microbe, parasite or virus in culture. The conditions noted are these: added after virus adsorption; for EC50: read-out: Protection of cells from death PD50. The format is cell-based. As to the method: The Anti-HIV activity of dipeptide 1 was studied on a highly HIV-sensitive cell culture MT-4. […] Then, aliquots of serial dilutions of dipeptide 1 in DMSO were added into the wells to the final concentrations of 0.1 ng/ml to 1 μg/ml (each concentration in triplicate). The experimental (with the preparation added) and control (without the preparation added) infected cells were cultivated at 37° C. and 5% CO2 for 4 days. […] 3, p. […] The inhibiting dose for dipeptide 1 is 0.4 μM. The dose of the compound protecting the cells from death (PD50) was also determined. […] Additionally, the selectivity index (IS) calculated as a ratio of the toxic dose of dipeptide 1 to the protection dose thereof PD50 (CD50/PD50) was determined.

In data set [3] the test system is HIV-1/EVK. Nature of the data set: microbe, parasite or virus in culture. The data set is classed as cell-based. The following applies: added simultaneously with the virus. As to the method: The anti-HIV activity of dipeptide 1 was studied on a highly HIV-sensitive cell culture MT-4. The MT-4 cells were added into the wells of a 96-well culture plate and infected with a virus stock (strain HIV-1/EVK) at a multiplicity of infection of 0.2-0.5 tissue culture infective dose per cell, then the test substance was added into a cell suspension simultaneously with the virus to give the final concentration of 0.00001 to 1 μg/ml (each concentration in triplicate) and incubated at 37° C. for 1 h (virus adsorption). On completion of the incubation, the suspension of the infected cells was diluted with a complete growth medium with all supplements as described above containing the preparations in the same concentrations to give the inoculation concentration of 0.5×10^6 cells/ml.
The experimental (with the preparation added) and control (without the preparation added) infected cells and control uninfected cells (without the preparation added) were cultivated at 37° C. and 5% CO2 for 4 days. On completion of the incubation the proportion of viable cells was counted in a Gorjaev's chamber after staining with a 0.4% trypan blue solution and the accumulation level of virus-specific protein p24 was controlled by the immunoenzyme method as described [Fedyuk N. V., Konovalov E. E., Loktev V. B., Uryvaev L. V., Kulyandin S. A., Pokrovsky A. G.//Problems of Virology, 1992, v. 3, p. 135].
In addition, the inhibiting dose ID90 that corresponds to the concentration of dipeptide 1 suppressing the virus production by 90% was determined. […] PD50, the concentration of dipeptide 1 protecting by 50% the infected cells from the virus-induced cytopathic effect was also calculated as described earlier by us [Svinarchuk P. P., Konevetz D. A., Pliasunova O. A., Pokrovsky A. G., Vlassov V. V.//Biochimie, 1993, Bd. 75, S. 243]. […] Comparing the concentrations inducing 50 and 90% inhibition of virus accumulation provides an important characteristic of the anti-viral activity.

Data set [4] concerns MT-4 cells. The following applies: human, 4 days.
The subject of data set [5] is T-cellular immunity. Kind of data set: T-cellular immunity upon immunization with sheep red blood cells, rosette formation method. The data set is classed as in vivo, mice. The following applies: for Number of rosettes per 10^3 cells: mice, s.c. SRBC with compound (10 mg/kg), splenocytes at day 6; for Stimulation index: rosettes with compound / rosettes with SRBC alone. The procedure:
The effect on stimulating T-cellular immunity upon injection with a strong antigen of sheep red blood cells (SRBC) was studied by the rosette formation method.
Outbred male mice weighing 20-22 g were used in the experiment. […] SRBC without dipeptide 1 (negative control) or SRBC with IFA or with GA (positive control) were injected to the control animals; another control group—preimmune animals. At day 6 post immunization a suspension of splenocytes was prepared at a concentration of […] per 1 milliliter. 0.9 ml of the splenocyte suspension and 0.1 ml of a suspension of sheep red blood cells (10^9 cells per milliliter) were placed in glass vials, mixed and incubated for 16 h at 4° C. After incubation, 4 ml of a cold medium was added into the glass vial, carefully mixed; 100 μl of cell suspension was withdrawn using a pipette with a wide-bore mouth, stained with a 0.4% trypan blue solution and the number of rosettes was counted in a Gorjaev's chamber [Friemel H Immunological methods/Translated from German, edited by M. A. Frolova.—Moscow: Mir, 1979, 518 p.]. The results are presented as the number of rosettes formed per […]. The stimulation index was calculated as a ratio of the number of rosettes in the experiment (immunization with SRBC in a mixture with the compound studied) and the number of rosettes in the control (immunization with SRBC alone).

Data set [6] has as its system white outbred mice. Nature of the data set: Acute toxicity, intraperitoneal injection. The format is in vivo. As to the method: 0.5 ml of the compound was injected intraperitoneally to mice weighing 20 g, each group comprising 4 animals. 0.5 ml of sterile sunflower oil was injected to the control mice.
For data set [7], the system named is MT-4 cells. Kind of data set: Cytotoxicity on MT-4 cells (trypan blue viable cell count, 4 days). The conditions noted are these: concentration reducing by 50% the proportion of viable MT-4 cells.
The mark [8] stands for this setting: Human immunodeficiency virus 1, MT4, 96 h, MT-4, HIV-1/EVK, 4 days, read-out: Inhibition of P24 accumulation ID50.

Turning to `C=C(C)[C@@H]1CC[C@]2(C(=O)NCCCCCCCCC(=O)NC(CC(=O)O)c3ccccc3)CC[C@]3(C)C(CCC4[C@@]5(C)CCC(=O)C(C)(C)C5CC[C@]43C)C12` (stereo partly drawn) [Compound 9], the “Antibody titer (inverse value)” value in data set [1] is 51200. Further, in data set [1], the Immunogenicity coefficient amounted to 256. Also, the “IS (selectivity index)” value came out at 14.0 in data set [2] (CD50/ID50) and 2135 in data set [3] (CD50/ID50). Moreover, the IC50 in data set [2] (setting [8]) was 400 nM; in data set [3] (setting [8]) it was 2.6 nM. In data set [2] (Human immunodeficiency virus 1, MT4, MT-4, HIV-1/EVK), the EC50 stood at 500 nM. In addition, the “Inhibition of P24 accumulation ID90” value in data set [2] (MT-4, HIV-1/EVK, 4 days) is “Not achieved”; in data set [3] (MT-4, HIV-1/EVK, 4 days), 198 nM. Besides, in data set [4], the CD50 stood at 5.6 µM. The “Number of rosettes per 10^3 cells” value in data set [5] was found to be 21 ± 1.4. Besides, in data set [5], the Stimulation index is on record as 1.8.
In the case of `CC1(C)[C@@H](O[C@H]2O[C@H](C(=O)O)[C@@H](O)[C@H](O)[C@H]2O[C@@H]2O[C@H](C(=O)O)[C@@H](O)[C@H](O)[C@H]2O)CC[C@]2(C)[C@H]3C(=O)C=C4[C@@H]5C[C@@](C)(C(=O)O)CC[C@]5(C)CC[C@@]4(C)[C@]3(C)CC[C@@H]12` [GA, glycyrrhizinic acid], in data set [1], the “Antibody titer (inverse value)” value is 5120 and the Immunogenicity coefficient turned out to be 25.6. Moreover, in data set [5], the “Number of rosettes per 10^3 cells” value came out at 24 ± 1.1 and the Stimulation index stood at 2.0.
Take “N′-{N-[3-oxo-lupan-28-oyl]-9-aminononanoyl}-3-amino-3-phenylpropionic acid [Compound 1]”: the hazard class entry in data set [6] (from LD50, mice) is “class 3 of moderately hazardous substances”. For the same molecule, the LD50 result in data set [6] (mice of both sexes) is recorded as “more than 2500 mg/kg”. The “Inhibition of P24 accumulation ID90” value in data set [2] (MT-4, HIV-1/EVK, 4 days) was “Not achieved”; in data set [3] (MT-4, HIV-1/EVK, 4 days) it was 100 nM. Besides, the EC50 in data set [2] (MT-4, HIV-1/EVK) is 250 nM; in data set [3] (concentration protecting by 50% the infected cells from virus-induced cytopathic effect, read-out: PD50), 15 nM. The CD50 in data set [7] was found to be 6.8 µM. Moreover, the “Number of rosettes per 10^3 cells” value in data set [5] was determined as 24 ± 1.3.
